From the NIST ThermoML archive (doi:10.1016/j.jct.2018.08.005)
Numbers after ± are expanded uncertainties.

Assay: xn = mol fraction of the nth substance listed
Conditions: Liquid; for speed of sound: Frequency=3 MHz, Pulse-echo method; for mass density: Vibrating tube method

CCOC(F)(C(F)(F)C(F)(F)C(F)(F)F)C(F)(C(F)(F)F)C(F)(F)F (stereo not given) [2-trifluoromethyl-3-ethoxydodecafluorohexane] + CC(C)OC(C)C
Conditions | mass density, x1 = 0.25 [kg/m3] | mass density, x1 = 0.375 [kg/m3] | mass density, x1 = 0.5 [kg/m3] | mass density, x1 = 0.625 [kg/m3] | mass density, x1 = 0.75 [kg/m3] | speed of sound, x1 = 0.25 [m/s] | speed of sound, x1 = 0.375 [m/s] | speed of sound, x1 = 0.5 [m/s] | speed of sound, x1 = 0.625 [m/s] | speed of sound, x1 = 0.75 [m/s]
293.15 K, 100 kPa | 1053.2 ± 0.8 | 1178.3 ± 0.7 | 1289.5 ± 0.8 | 1391.2 ± 0.7 | 1478.4 ± 0.8 | 802 ± 2.3 | 756.1 ± 2.2 | 719.2 ± 2.2 | 701.5 ± 2.2 | 686.9 ± 2.2
293.15 K, 10000 kPa | 1071 ± 0.8 | 1197.9 ± 0.8 | 1310.6 ± 0.8 | 1413.6 ± 0.8 | 1501.4 ± 0.8 | – | – | – | – | –
293.15 K, 20000 kPa | 1086.1 ± 0.8 | 1214.9 ± 0.8 | 1328.9 ± 0.8 | 1432.8 ± 0.9 | 1521.4 ± 1 | 930.1 ± 2.2 | 879 ± 2.2 | 839 ± 2.2 | 818.1 ± 2.1 | 799.8 ± 2.1
293.15 K, 30000 kPa | 1099.4 ± 0.8 | 1229.8 ± 0.8 | 1344.9 ± 0.9 | 1449.9 ± 1 | 1539 ± 1.1 | – | – | – | – | –
293.15 K, 40000 kPa | 1111.2 ± 0.8 | 1243.1 ± 0.9 | 1359.3 ± 1 | 1465.1 ± 1.2 | 1554.8 ± 1.3 | 1029.9 ± 2.2 | 975.3 ± 2.2 | 933 ± 2.2 | 909.4 ± 2.1 | 888.3 ± 2.2
293.15 K, 50000 kPa | 1122.1 ± 0.8 | 1255.2 ± 1 | 1372.4 ± 1.1 | 1479 ± 1.3 | 1569.2 ± 1.5 | – | – | – | – | –
293.15 K, 60000 kPa | 1132.1 ± 0.9 | 1266.3 ± 1.1 | 1384.4 ± 1.3 | 1491.7 ± 1.5 | 1582.4 ± 1.8 | 1113.8 ± 2.2 | 1056.9 ± 2.2 | 1012.2 ± 2.2 | 988 ± 2.1 | 963.7 ± 2.2
293.15 K, 70000 kPa | 1141.5 ± 0.9 | 1276.8 ± 1.1 | 1395.6 ± 1.4 | 1503.7 ± 1.8 | 1594.8 ± 2 | – | – | – | – | –
293.15 K, 80000 kPa | 1150.2 ± 1 | 1286.4 ± 1.2 | 1406.1 ± 1.6 | 1514.7 ± 2 | 1606.3 ± 2.3 | 1187.2 ± 2.2 | 1127.9 ± 2.2 | 1081.1 ± 2.2 | 1056.3 ± 2.2 | 1029.1 ± 2.2
293.15 K, 90000 kPa | 1158.4 ± 1 | 1295.5 ± 1.4 | 1416 ± 1.8 | 1525.1 ± 2.2 | 1617.1 ± 2.6 | – | – | – | – | –
293.15 K, 100000 kPa | 1166.2 ± 1.1 | 1304.3 ± 1.5 | 1425.3 ± 2 | 1535 ± 2.5 | 1627.3 ± 2.9 | 1254 ± 2.2 | 1190.8 ± 2.2 | 1143 ± 2.2 | 1116.9 ± 2.2 | 1088.5 ± 2.2
293.15 K, 110000 kPa | 1173.5 ± 1.1 | 1312.4 ± 1.7 | 1434.1 ± 2.2 | 1544.3 ± 2.7 | 1637.1 ± 3.2 | – | – | – | – | –
293.15 K, 120000 kPa | 1180.7 ± 1.2 | 1320.3 ± 1.8 | 1442.6 ± 2.4 | 1553.2 ± 3 | 1646.4 ± 3.4 | – | – | – | – | –
293.15 K, 130000 kPa | 1187.4 ± 1.3 | 1327.8 ± 2 | 1450.7 ± 2.6 | 1561.8 ± 3.2 | 1655.3 ± 3.7 | – | – | – | – | –
293.15 K, 140000 kPa | 1193.8 ± 1.4 | 1335.1 ± 2.1 | 1458.3 ± 2.8 | 1569.9 ± 3.5 | 1663.8 ± 4 | – | – | – | – | –
303.15 K, 100 kPa | 1038.3 ± 0.8 | 1161.8 ± 0.8 | 1271.6 ± 0.8 | 1372.4 ± 0.8 | 1458.7 ± 0.8 | 763.8 ± 2.2 | – | 687.9 ± 2.2 | 670.9 ± 2.2 | 656 ± 2.2
303.15 K, 10000 kPa | 1057.2 ± 0.8 | 1183 ± 0.8 | 1294.5 ± 0.8 | 1396.6 ± 0.8 | 1483.7 ± 0.9 | – | – | – | – | –
303.15 K, 20000 kPa | 1073.6 ± 0.8 | 1201.2 ± 0.8 | 1314.1 ± 0.8 | 1417.3 ± 0.9 | 1505.1 ± 1 | 898.1 ± 2.2 | 848.7 ± 2.2 | 812.7 ± 2.2 | 793.7 ± 2.2 | 773.5 ± 2.2
303.15 K, 30000 kPa | 1087.7 ± 0.8 | 1217 ± 0.8 | 1331.1 ± 0.9 | 1435.3 ± 1 | 1523.8 ± 1.1 | – | – | – | – | –
303.15 K, 40000 kPa | 1100.3 ± 0.8 | 1231.1 ± 0.9 | 1346.3 ± 1 | 1451.3 ± 1.2 | 1540.4 ± 1.3 | 1001.7 ± 2.2 | 948.6 ± 2.2 | 909.1 ± 2.2 | 889.5 ± 2.2 | 864.7 ± 2.2
303.15 K, 50000 kPa | 1111.7 ± 0.8 | 1243.8 ± 1 | 1360 ± 1.1 | 1465.8 ± 1.3 | 1555.5 ± 1.5 | – | – | – | – | –
303.15 K, 60000 kPa | 1122.1 ± 0.9 | 1255.4 ± 1 | 1372.6 ± 1.3 | 1479.2 ± 1.5 | 1569.3 ± 1.8 | 1089.1 ± 2.2 | 1032.1 ± 2.2 | 989.8 ± 2.2 | 969.5 ± 2.2 | 941.8 ± 2.2
303.15 K, 70000 kPa | 1131.8 ± 0.9 | 1266.2 ± 1.1 | 1384.2 ± 1.4 | 1491.4 ± 1.7 | 1582.1 ± 2 | – | – | – | – | –
303.15 K, 80000 kPa | 1140.8 ± 0.9 | 1276.1 ± 1.2 | 1395.1 ± 1.6 | 1502.8 ± 2 | 1594 ± 2.3 | 1164.4 ± 2.2 | 1104 ± 2.2 | 1059.8 ± 2.2 | – | 1008.7 ± 2.2
303.15 K, 90000 kPa | 1149.3 ± 1 | 1285.5 ± 1.3 | 1405.2 ± 1.8 | 1513.6 ± 2.2 | 1605.2 ± 2.5 | – | – | – | – | –
303.15 K, 100000 kPa | 1157.3 ± 1 | 1294.3 ± 1.5 | 1414.8 ± 2 | 1523.7 ± 2.4 | 1615.8 ± 2.8 | 1231.9 ± 2.2 | 1170.1 ± 2.2 | 1123 ± 2.2 | 1101.7 ± 2.2 | 1068.1 ± 2.2
303.15 K, 110000 kPa | 1164.9 ± 1.1 | 1302.8 ± 1.6 | 1423.9 ± 2.2 | 1533.3 ± 2.7 | 1625.8 ± 3.1 | – | – | – | – | –
303.15 K, 120000 kPa | 1172.1 ± 1.2 | 1310.8 ± 1.8 | 1432.6 ± 2.4 | 1542.4 ± 2.9 | 1635.3 ± 3.4 | – | – | – | – | –
303.15 K, 130000 kPa | 1178.8 ± 1.2 | 1318.4 ± 1.9 | 1440.8 ± 2.6 | 1551.2 ± 3.2 | 1644.4 ± 3.7 | – | – | – | – | –
303.15 K, 140000 kPa | 1185.4 ± 1.3 | 1325.9 ± 2.1 | 1448.7 ± 2.8 | 1559.5 ± 3.4 | 1653.1 ± 4 | – | – | – | – | –
313.15 K, 100 kPa | 1022.4 ± 0.8 | 1144.5 ± 0.8 | 1253.4 ± 0.8 | 1351.8 ± 0.8 | 1438.4 ± 0.8 | 729.6 ± 2.2 | – | 656.3 ± 2.2 | 641.2 ± 2.2 | 626.5 ± 2.2
313.15 K, 10000 kPa | 1042.9 ± 0.8 | 1167.7 ± 0.8 | 1278.3 ± 0.8 | 1378.1 ± 0.8 | 1465.4 ± 0.8 | – | – | – | – | –
313.15 K, 20000 kPa | 1060.3 ± 0.8 | 1187.2 ± 0.8 | 1299.2 ± 0.8 | 1400.1 ± 0.9 | 1488.1 ± 1 | 870.2 ± 2.2 | 821.7 ± 2.2 | 786.8 ± 2.2 | 769.5 ± 2.2 | 749.4 ± 2.2
313.15 K, 30000 kPa | 1075.3 ± 0.8 | 1203.9 ± 0.8 | 1317.2 ± 0.9 | 1419.2 ± 1 | 1507.8 ± 1.1 | – | – | – | – | –
313.15 K, 40000 kPa | 1088.5 ± 0.8 | 1218.6 ± 0.9 | 1333.1 ± 1 | 1436 ± 1.1 | 1525.3 ± 1.3 | 975.8 ± 2.2 | 924.1 ± 2.2 | 885.6 ± 2.2 | 866.8 ± 2.2 | 843.3 ± 2.2
313.15 K, 50000 kPa | 1100.5 ± 0.8 | 1232 ± 0.9 | 1347.4 ± 1.1 | – | – | – | – | – | – | –
